The NIST ThermoML archive (doi:10.1021/je2000606)
Numbers after ± are expanded uncertainties.

What was measured:
[1] = 101.33 kPa, Liquid; for viscosity: Falling or rolling sphere viscometry; for mass density: Vibrating tube method
[2] = refractive index (Na D-line) (dimensionless); conditions: 101.33 kPa, Liquid, Standard Abbe refractometry
[3] = xn = mol fraction of the nth substance listed; conditions: 101 kPa, Liquid
[4] = refractive index (Na D-line) (dimensionless); xn = mol fraction of the nth substance listed; conditions: 101 kPa, Liquid

CO [methanol]
Conditions	mass density, [1] [kg/m3]	refractive index, [2]	viscosity, [1] [mPa·s]
298.15 K	786.4 ± 1	1.3266 ± 0.0004	0.532 ± 0.2
303.15 K	782.2 ± 1	1.3243 ± 0.0004	0.515 ± 0.2
308.15 K	776.7 ± 1	1.3224 ± 0.0004	0.465 ± 0.2
313.15 K	772.9 ± 1	1.3208 ± 0.0004	0.441 ± 0.2

CCCCn1cc[n+](C)c1.C[C@H](N)C(=O)[O-] [3-butyl-1-methyl-1H-imidazolium L-alaninate]
Conditions	mass density, [1] [kg/m3]	refractive index, [2]	viscosity, [1] [mPa·s]
298.15 K	1080.2 ± 1	1.5184 ± 0.0004	78.3 ± 1.4
303.15 K	1076.5 ± 1	1.5168 ± 0.0004	59.77 ± 0.79
308.15 K	1074.2 ± 1	1.5153 ± 0.0004	47.03 ± 0.63
313.15 K	1071.1 ± 1	1.5135 ± 0.0004	37.95 ± 0.53

CCCCn1cc[n+](C)c1.C[C@H](N)C(=O)[O-] [3-butyl-1-methyl-1H-imidazolium L-alaninate] + CO
Conditions	mass density, [3] [kg/m3]	refractive index, [4]	viscosity, [3] [mPa·s]
298.15 K, x1 = 0.0986	906.31 ± 1.1	1.3952 ± 0.0007	1.824 ± 0.29
298.15 K, x1 = 0.2015	968.55 ± 1.1	1.438 ± 0.0007	2.979 ± 0.39
298.15 K, x1 = 0.2837	998.11 ± 1.1	1.4595 ± 0.0007	4.892 ± 0.61
298.15 K, x1 = 0.3985	1024.98 ± 1.1	1.4787 ± 0.0007	8.963 ± 1.1
298.15 K, x1 = 0.5105	1042.62 ± 1.1	1.4914 ± 0.0007	15.2 ± 1.9
298.15 K, x1 = 0.6035	1053.47 ± 1.1	1.4994 ± 0.0007	22.23 ± 2.8
298.15 K, x1 = 0.7011	1062.38 ± 1.1	1.5058 ± 0.0007	31.13 ± 3.9
298.15 K, x1 = 0.8152	1070.44 ± 1.1	1.5111 ± 0.0007	45.03 ± 5.6
298.15 K, x1 = 0.9139	1076 ± 1.1	1.5147 ± 0.0007	60.33 ± 6.1
303.15 K, x1 = 0.0986	901.65 ± 1.1	1.3926 ± 0.0007	1.753 ± 0.28
303.15 K, x1 = 0.2015	963.93 ± 1.1	1.435 ± 0.0007	2.76 ± 0.37
303.15 K, x1 = 0.2837	993.59 ± 1.1	1.4564 ± 0.0007	3.714 ± 0.47
303.15 K, x1 = 0.3985	1020.56 ± 1.1	1.4755 ± 0.0007	6.403 ± 0.8
303.15 K, x1 = 0.5105	1038.31 ± 1.1	1.4883 ± 0.0007	10.73 ± 1.3
303.15 K, x1 = 0.6035	1049.27 ± 1.1	1.4964 ± 0.0007	16.01 ± 2
303.15 K, x1 = 0.7011	1058.3 ± 1.1	1.5029 ± 0.0007	22.63 ± 2.8
303.15 K, x1 = 0.8152	1066.5 ± 1.1	1.5087 ± 0.0007	32.91 ± 4.1
303.15 K, x1 = 0.9139	1072.2 ± 1.1	1.5126 ± 0.0007	45.02 ± 5.6
308.15 K, x1 = 0.0986	896.59 ± 1.1	1.3901 ± 0.0007	1.829 ± 0.29
308.15 K, x1 = 0.2015	959.34 ± 1.1	1.4323 ± 0.0007	2.349 ± 0.33
308.15 K, x1 = 0.2837	989.32 ± 1.1	1.4533 ± 0.0007	3.429 ± 0.44
308.15 K, x1 = 0.3985	1016.81 ± 1.1	1.4723 ± 0.0007	5.513 ± 0.68
308.15 K, x1 = 0.5105	1034.85 ± 1.1	1.485 ± 0.0007	9.168 ± 1.1
308.15 K, x1 = 0.6035	1046.07 ± 1.1	1.493 ± 0.0007	13.4 ± 1.7
308.15 K, x1 = 0.7011	1055.34 ± 1.1	1.5 ± 0.0007	18.29 ± 2.3
308.15 K, x1 = 0.8152	1063.85 ± 1.1	1.5059 ± 0.0007	26.27 ± 3.3
308.15 K, x1 = 0.9139	1069.71 ± 1.1	1.5105 ± 0.0007	35.3 ± 4.4
313.15 K, x1 = 0.0986	892.46 ± 1.1	1.3881 ± 0.0007	1.34 ± 0.25
313.15 K, x1 = 0.2015	955.28 ± 1.1	1.4297 ± 0.0007	2.113 ± 0.31
313.15 K, x1 = 0.2837	985.35 ± 1.1	1.4502 ± 0.0007	2.792 ± 0.38
313.15 K, x1 = 0.3985	1012.89 ± 1.1	1.4692 ± 0.0007	5.197 ± 0.65
313.15 K, x1 = 0.5105	1031.1 ± 1.1	1.4817 ± 0.0007	8.3 ± 1
313.15 K, x1 = 0.6035	1042.42 ± 1.1	1.4898 ± 0.0007	11.91 ± 1.5
313.15 K, x1 = 0.7011	1051.82 ± 1.1	1.497 ± 0.0007	15.87 ± 2
313.15 K, x1 = 0.8152	1060.49 ± 1.1	1.5034 ± 0.0007	21.92 ± 2.7
313.15 K, x1 = 0.9139	1066.51 ± 1.1	1.5082 ± 0.0007	29.18 ± 3.6

CCCCn1cc[n+](C)c1.C[C@H](N)C(=O)[O-] [3-butyl-1-methyl-1H-imidazolium L-alaninate] + OCc1ccccc1
Conditions	mass density, [3] [kg/m3]	refractive index, [4]	viscosity, [3] [mPa·s]
298.15 K, x1 = 0.1012	1052.86 ± 1.1	1.5355 ± 0.0007	6.989 ± 0.45
298.15 K, x1 = 0.1939	1059.8 ± 1.1	1.534 ± 0.0007	8.647 ± 0.55
298.15 K, x1 = 0.3103	1066.02 ± 1.1	1.532 ± 0.0007	11.9 ± 0.75
298.15 K, x1 = 0.3971	1069.57 ± 1.1	1.5304 ± 0.0007	14.7 ± 0.93
298.15 K, x1 = 0.4864	1072.4 ± 1.1	1.5287 ± 0.0007	18.75 ± 1.2
298.15 K, x1 = 0.6015	1075.14 ± 1.1	1.5264 ± 0.0007	26.24 ± 1.7
298.15 K, x1 = 0.6945	1076.58 ± 1.1	1.5245 ± 0.0007	34.42 ± 2.2
298.15 K, x1 = 0.8015	1077.73 ± 1.1	1.5223 ± 0.0007	46.72 ± 2.9
298.15 K, x1 = 0.9026	1078.72 ± 1.1	1.5203 ± 0.0007	61.33 ± 3.4
303.15 K, x1 = 0.1012	1048.56 ± 1.1	1.5333 ± 0.0007	5.691 ± 0.38
303.15 K, x1 = 0.1939	1055.61 ± 1.1	1.5319 ± 0.0007	6.738 ± 0.44
303.15 K, x1 = 0.3103	1061.88 ± 1.1	1.53 ± 0.0007	9.274 ± 0.58
303.15 K, x1 = 0.3971	1065.49 ± 1.1	1.5285 ± 0.0007	11.46 ± 0.72
303.15 K, x1 = 0.4864	1068.42 ± 1.1	1.5268 ± 0.0007	14.62 ± 0.92
303.15 K, x1 = 0.6015	1071.16 ± 1.1	1.5246 ± 0.0007	20.5 ± 1.3
303.15 K, x1 = 0.6945	1072.71 ± 1.1	1.5227 ± 0.0007	26.62 ± 1.7
303.15 K, x1 = 0.8015	1073.95 ± 1.1	1.5206 ± 0.0007	35.94 ± 2.3
303.15 K, x1 = 0.9026	1074.98 ± 1.1	1.5186 ± 0.0007	46.96 ± 3
308.15 K, x1 = 0.1012	1045.09 ± 1.1	1.5308 ± 0.0007	4.951 ± 0.35
308.15 K, x1 = 0.1939	1052.25 ± 1.1	1.5295 ± 0.0007	5.953 ± 0.39
308.15 K, x1 = 0.3103	1058.75 ± 1.1	1.5277 ± 0.0007	7.695 ± 0.48
308.15 K, x1 = 0.3971	1062.51 ± 1.1	1.5263 ± 0.0007	9.977 ± 0.62
308.15 K, x1 = 0.4864	1065.53 ± 1.1	1.5247 ± 0.0007	12.61 ± 0.79
308.15 K, x1 = 0.6015	1068.43 ± 1.1	1.5226 ± 0.0007	17.36 ± 1.1
308.15 K, x1 = 0.6945	1070.11 ± 1.1	1.5209 ± 0.0007	22.13 ± 1.4
308.15 K, x1 = 0.8015	1071.46 ± 1.1	1.5189 ± 0.0007	29.01 ± 1.8
308.15 K, x1 = 0.9026	1072.58 ± 1.1	1.517 ± 0.0007	36.89 ± 2.3
313.15 K, x1 = 0.1012	1041.62 ± 1.1	1.5286 ± 0.0007	4.28 ± 0.32
313.15 K, x1 = 0.1939	1048.77 ± 1.1	1.5273 ± 0.0007	5.515 ± 0.37
313.15 K, x1 = 0.3103	1055.35 ± 1.1	1.5256 ± 0.0007	7.175 ± 0.46
313.15 K, x1 = 0.3971	1059.07 ± 1.1	1.5242 ± 0.0007	8.904 ± 0.56
313.15 K, x1 = 0.4864	1062.18 ± 1.1	1.5227 ± 0.0007	11.02 ± 0.69
313.15 K, x1 = 0.6015	1065.2 ± 1.1	1.5206 ± 0.0007	15.01 ± 0.94
313.15 K, x1 = 0.6945	1066.87 ± 1.1	1.5189 ± 0.0007	18.65 ± 1.2
313.15 K, x1 = 0.8015	1068.31 ± 1.1	1.517 ± 0.0007	24.47 ± 1.5
313.15 K, x1 = 0.9026	1069.52 ± 1.1	1.5152 ± 0.0007	30.69 ± 1.9

OCc1ccccc1 [benzenemethanol]
Conditions	mass density, [1] [kg/m3]	refractive index, [2]	viscosity, [1] [mPa·s]
298.15 K	1041.64 ± 1	1.5371 ± 0.0004	5.55 ± 0.21
303.15 K	1037.42 ± 1	1.5349 ± 0.0004	4.675 ± 0.21
308.15 K	1033.84 ± 1	1.5323 ± 0.0004	4.01 ± 0.2
313.15 K	1030.43 ± 1	1.5301 ± 0.0004	3.522 ± 0.2
